According to paper PMC3917155 (Journal of medicinal chemistry, 2013):

System: R2(VC)
Assay: cells
Design: species or system CHO sublines
Settings: 96 h, read-out: >1000

Compound | IC50
Nc1nc2[nH]cc(CCCCc3ccc(C(=O)N[C@@H](CCC(=O)O)C(=O)O)cc3)c2c(=O)[nH]1 [compound 8] | > 1000 nM
Nc1nc2[nH]cc(CCCc3ccc(C(=O)N[C@@H](CCC(=O)O)C(=O)O)cc3)c2c(=O)[nH]1 [compound 7] | > 1000 nM
